Each structure is given as a SMILES string. pIC50: −log10 of the molar value.

One test relates to WEHI-164. In words: Antitumor activity against WEHI 164 cell. In kind it is functional, cell-based. To be noted: Mus musculus.
The subject of test [1] is HeLa. In words: Antitumor activity against HeLa cell line at 10 uM by MTT assay. In kind it is functional. The following applies: Homo sapiens.
In test [2] the test system is HeLa. Nature of the test: Antitumor activity against HeLa cell line at 10 nM by MTT assay. In kind it is functional. The following applies: Homo sapiens.
The subject of test [3] is HeLa. In words: Antitumor activity against HeLa cell line by MTT assay. To be noted: Homo sapiens. In kind it is functional, cell-based. On the technique in general: Formazan colour is commonly taken as a measure of viable cells.
In test [4] the test system is HeLa. In words: Antitumor activity against HeLa cell line at 1 uM by MTT assay. Format: functional. The following applies: Homo sapiens.
Test [5] deals with HeLa. In words: Antitumor activity against HeLa cell line at 100 nM by MTT assay. Format: functional. To be noted: Homo sapiens.

Broadly, the pIC50 is −log10 of the IC50, conventionally taken in molar units. Low values mean a high IC50, high ones a low IC50. For orientation: inhibition means the share of the control response that was lost under treatment. `CC(=O)N[C@H]1[C@H](O[C@H]2CC[C@]3(C)[C@H]4CC=C5[C@@H]6CC(C)(C)CC[C@]6(C(=O)O)CC[C@@]5(C)[C@]4(C)CC[C@H]3C2(C)C)O[C@H](CO)[C@@H](O)[C@@H]1O[C@@H]1O[C@H](CO)[C@H](O)[C@H](O)[C@H]1O` [LOTOIDOSIDE E]: the negative-log IC50 (pIC50) was 7.52 in the test on WEHI-164 and below 5.00 with HeLa [3]. Also, in the test with HeLa [1], the inhibition at 10 µM came out at 42%. Also, the inhibition at 0.01 µM in the test with HeLa [2] amounted to 0.79%. In addition, the inhibition at 1 µM in the test on HeLa [4] worked out at 10%. The compound also showed an inhibition at 0.1 µM with HeLa [5] of 1.71%.

On to `CC(=O)N[C@H]1[C@H](O[C@H]2CC[C@]3(C)[C@H]4CC=C5[C@@H]6CC(C)(C)CC[C@]6(C(=O)O)CC[C@@]5(C)[C@]4(C)CC[C@H]3C2(C)C)O[C@H](CO)[C@H](O[C@@H]2O[C@H](CO)[C@@H](O)[C@H](O)[C@H]2O)[C@@H]1O[C@@H]1O[C@H](CO)[C@H](O)[C@H](O)[C@H]1O` [LOTOIDOSIDE D], for which the pIC50 is 6.44 in the test on WEHI-164 and 5.56 in the test on HeLa [3]. In the test on HeLa [1], the inhibition at 10 µM was found to be 56.4%. The inhibition at 0.01 µM in the test with HeLa [2] was determined as 34.4%. This compound also came in with an inhibition at 1 µM in the test on HeLa [4] of 35.3%. This compound returned an inhibition at 0.1 µM with HeLa [5] of 32.8%.

Values taken from ChEMBL document CHEMBL1146039, “Synthesis and antitumor activity of two natural N-acetylglucosamine-bearing triterpenoid saponins: lotoidoside D and E” (Bioorg Med Chem Lett, 2006).
